# Structures can show the parent of a compound that is named as a salt.
row,SMILES,melting point
1,"Cc1n[nH]c(Sc2c(Cc3ccccc3C(F)(F)F)sc3c2c(=O)n(C)c(=O)n3CC(C)C)n1 (as salt: hydrochloride) [Example 30, 3-Methyl-1-(2-methylpropyl)-5-[(5-methyl-1H-1,2,4-triazol-3yl)thiol-6-[[2-(trifluoromethyl)phenyl]methyl]-thieno[2,3-d]pyrimidine-2,4(1H,3H)-dione dihydrochloride]",154 °C
2,"CC(C)Cn1c(=O)n(C)c(=O)c2c(Sc3nncs3)c(Cc3ccccc3C(F)(F)F)sc21 [Example 32, 3-Methyl-1-(2-methylpropyl)-5-(1,3,4-thiadiazol-2-ylthio)-6-[2-(trifluoromethyl)benzyl]-thieno[2,3-d]pyrimidine-2,4(1H,3H)dione]",169 to 170 °C
3,"CC(C)Cn1c(=O)n(C)c(=O)c2c(Sc3nccs3)c(C(=O)c3ccnc4ccccc34)sc21 [Example 48, 3-Methyl-1-(2-methylpropyl)-6-(4-quinolinylcarbonyl)-5-(1,3-thiazol-2-ylthio)-thieno[2,3-d]pyrimidine-2,4(1H,3H)-dione]",166.8 to 167.6 °C
4,CC(C)Cn1c(=O)n(C)c(=O)c2c(Sc3cccs3)c(Cn3cnc4ccccc43)sc21 [Example 51],198 °C
5,"CC(C)Cn1c(=O)n(C)c(=O)c2c(Sc3n[nH]c(=O)[nH]3)c(Cc3ccccc3C(F)(F)F)sc21 [Example 41, 3-Methyl-1-(2-methylpropyl)-5-[(5-oxo-4,5-dilydro-1H-1,2,4-triazol-3-yl)thio]-6-[2-(trifluoromethyl)phenylmethyl]-thieno[2,3-d]pyrimidine-2,4(1H,3H)-dione]",205 to 211 °C
6,"CC(C)Cn1c(=O)n(C)c(=O)c2c(Sc3nnc(N)s3)c(Cc3ccccc3C(F)(F)F)sc21 [Example 33, 5-[(5-Amino-1,3,4-thiadiazol-2-yl)thio]-3-methyl-1-(2-methylpropyl)-6-[2-(trifluoromethyl)benzyl]-thieno[2,3-d]pyrimidine-2,4(1H,3H)-dione]",236 to 237 °C
7,Cc1nc(Sc2c(C(=O)c3ccccc3C(F)(F)F)sc3c2c(=O)n(C)c(=O)n3CC(C)C)n[nH]1 [Example 18],220 to 222 °C
8,"CC(C)Cn1c(=O)n(C)c(=O)c2c(Sc3cccs3)c(CN3C(=O)c4ccccc4C3=O)sc21 [Example 54, 6-[(1,3-Dihydro-1,3-dioxo-2H-isoindol-2-yl)methyl]-3-methyl-1-(2-methylpropyl)-5-(2-thienylthio)-thieno[2,3-d]pyrimidine-2,4(1H,3H)-dione]",163 °C
9,"CC(C)Cn1c(=O)n(C)c(=O)c2c(Sc3nccs3)c(C(O)c3ccnc4ccccc34)sc21 (centres unmarked) [Example 49, 6-[Hydroxy-(4-quinolinyl)-methyl]-3-methyl-1-(2-methylpropyl)-5-(1,3-thiazol-2-ylthio)-thieno[2,3-d]pyrimidine-2,4(1H,3H)-dione]",182.8 to 184 °C
10,"CC(C)Cn1c(=O)n(C)c(=O)c2c(Sc3nc[nH]n3)c(Cc3ccccc3C(F)(F)F)sc21 [Example 13, 3-Methyl-1-(2-methylpropyl)-5-(1H-1,2,4-triazol-3-ylthio)-6-[[2-(trifluoromethyl)phenyl]methyl]-thieno[2,3-d]pyrimidine-2,4(1H,3H)-dione]",186 to 187 °C
11,"CC(C)Cn1c(=O)n(C)c(=O)c2c(S(=O)(=O)c3nncs3)c(Cc3ccccc3C(F)(F)F)sc21 [Example 39, 3-Methyl-1-(2-methylpropl)-5-(1,3,4-thiadiazol-2-ylsulfonyl)-6-[2-(trifluoromethyl)benzyl]-thieno[2,3-d]pyrimidine-2,4(1H,3H)-dione]",148 to 149 °C
12,"CC(C)Cn1c(=O)n(C)c(=O)c2c(Sc3nccs3)c(Cc3ccccc3C(F)(F)F)sc21 [Example 29, 3-Methyl-1-(2-methylpropyl)-5-(2-thiazolylthio)-6-[[2-(trifluoromethyl)-phenyl]methyl]-thieno[2,3-d]pyrimidine-2,4(1H,3H)-dione]",141 to 144 °C
13,"CC(C)Cn1c(=O)n(C)c(=O)c2c(Sc3ncc[nH]3)c(Cc3ccccc3C(F)(F)F)sc21 [Example 31, 5-(1H-Imidazol-2-ylthio)-3-methyl-1-(2-methylpropyl)-6-[[2-(trifluoromethyl)phenyl]methyl]-thieno[2,3-d]pyrimidine-2,4(1H,3H)-dione]",221 to 225 °C
14,"CC(C)Cn1c(=O)n(C)c(=O)c2c(Sc3nnc[nH]3)c(Cc3csc4ccccc34)sc21 [Example 50, 6-(1-Benzothien3-ylmethyl)-3-methyl-1-(2-methylpropyl)-5-(4H-1,2,4-triazol-3-ylthio)-thieno[2,3-d]pyrimidine-2,4(1H,3H)-dione]",237 to 238.2 °C
15,"CC(C)Cn1c(=O)n(C)c(=O)c2c(Sc3ncc[nH]3)c(C(=O)c3ccccc3C(F)(F)F)sc21 [Example 22, 5-(1H-Imidazol-2-ylthio)-3-methyl-1-(2-methylpropyl)-6-[2-(trifluoromethyl)bezoyl]-thieno[2,3-d]pyrimidine-2,4(1H,3H)-dione]",123 to 127 °C
16,"CC(C)Cn1c(=O)n(C)c(=O)c2c(S(=O)(=O)c3nc[nH]n3)c(C(O)c3ccccc3C(F)(F)F)sc21 (centres unmarked) [Example 37, 6-[Hydroxy[2-(trifluoromethyl)phenyl]methyl]-3-methyl-1-(2-methylpropyl)-5-(1H-1,2,4-triazol-3-ylsulfonyl)-thieno[2,3-d]pyrimidine-2,4(1H,3H)-dione]",198 to 202 °C
17,CC(C)Cn1c(=O)n(C)c(=O)c2c(Sc3nc(Br)n[nH]3)c(Cc3ccccc3C(F)(F)F)sc21 [Example 40],174 to 175 °C

# From US20040014634A1, “Thieno[2,3-d]pyrimidinediones and their use as pharmaceuticals” (priority 2000, published 2004)
